The results in this text go back to ChEMBL document CHEMBL1201862, “PubChem BioAssay data set” (2004).

Activity calls are given as the source filed them.

Assay [1] is described as follows: Concentration-dependent survival of SW480 colon cancer line, luminescence detection with CellTiter-Glo, half-maximal inhibitory concentration (AID 1117338). Format: functional.
Assay [2] can be described thus: RKO cell viability reduction, dose response, CellTiter-Glo luminescence (AID 1117322). It counts as functional. A general note: Cellular ATP, detected with luciferase, serves as a proxy for viable cell number.
Assay [3] can be described thus: cytotoxicity toward HCT116 cells – cell-based, CellTiter-Glo luminescence, IC50, dose response (AID 1117332). Format: functional. The note with it: HCT-116.
Assay [4] is described as follows: SNU-C1 cell viability reduction, dose response, CellTiter-Glo luminescence (AID 1117323). Format: functional, cell-based.
Assay [5] can be described thus: cytotoxicity toward Colo320 cells – cell-based, CellTiter-Glo luminescence, IC50, dose response (AID 1117334). It counts as functional. To be noted: COLO 320.
Assay [6] can be described thus: CellTiter-Glo luminescent dose response of DLD-1 viability loss (AID 1117352). Format: functional.
The nature of assay [7]: HCT116 cell viability decrease, GSK3B pretreatment – CellTiter-Glo, IC50, dose response (AID 1117339). Format: functional. To be noted: HCT-116.
The target in assay [8] is SWI/SNF-related matrix-associated actin-dependent regulator of chromatin subfamily A member 2 (Homo sapiens, UniProt P51531). Nature of the assay: Luminescence-based cell-based high throughput dose response assay to identify activators of the function of SWI/SNF related, matrix associated, actin dependent regulator of chromatin, subfamily a, member 2 (SMARCA2, BRM). It counts as functional.

Assay [9] in a line: Counterscreen for activators of the function of SWI/SNF related, matrix associated, actin dependent regulator of chromatin, subfamily a, member 2 (SMARCA2, BRM): Luminescence-based cell-based high throughput dose response assay to identify non-selective compounds using the VP16 reporter assay. Format: functional. Background: A counterscreen serves to expose hits that act by an unwanted route or on another target.

Assay [10] is described as follows: HepG2 cell cytotoxicity, dose response, cytotoxicity control, ATP luminescence, cherry-pick, set 6 (AID 1053125). It counts as functional, cell-based.
The nature of assay [11]: cells. To be noted: A549.
Assay [12] is described as follows: cells. The note with it: HEK293.
Assay [13] has as its target Muscarinic acetylcholine receptor M5 (Rattus norvegicus, UniProt P08911). Nature of the assay: Discovery of Novel Antagonists of Muscarinic Receptor M5: Counterscreen against RAT M5. Format: functional.
Assay [14] deals with Muscarinic acetylcholine receptor M5 (Homo sapiens, UniProt P08912). Nature of the assay: M5 muscarinic receptor antagonist potency, dose response, cell-based, CHO-K1 hM5, Fluo-4 calcium flux, ACh EC80 (AID 743110). Format: functional. For orientation: Calcium flux is commonly read through the fluorescence of an indicator in the cells.
The nature of assay [15]: A549 cell cytotoxicity, dose response, cytotoxicity control, plate reader, dry powder, set 6 (AID 743312). Format: functional, cell-based.
Assay [16] in a line: HEK293T cell cytotoxicity, dose response, cytotoxicity control, plate reader, dry powder, set 10 (AID 743315). Format: functional, cell-based. To be noted: HEK293.
Assay [17] is described as follows: cells. The note with it: HEK293. The source holds these as a separate data set.
The target of assay [18] is 1-phosphatidylinositol 4,5-bisphosphate phosphodiesterase gamma-1 (Homo sapiens, UniProt P19174). Nature of the assay: Counterscreen for inhibitors of phospholipase C isozymes (PLC-B3): Fluorescence-based biochemical high throughput dose response assay to identify inhibitors of phospholipase C isozymes (PLC-gamma1).
Assay [19] has as its target 1-phosphatidylinositol 4,5-bisphosphate phosphodiesterase beta-3 (Homo sapiens, UniProt Q01970). Nature of the assay: Fluorescence-based biochemical high throughput dose response assay to identify inhibitors of phospholipase C isozymes (PLC-B3).
The next assay deals with Transthyretin (Homo sapiens, UniProt P02766). Nature of the assay: Luminescence-based cell-based high throughput dose response assay to identify activators of Transthyretin (TTR) transcription. Format: functional.
Assay [20] in a line: P. falciparum 3D7-ScDHODH growth inhibitors, dose response, SYBR Green, dry powder samples (AID 1159570).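 Also: parasite growth measured after 72 hours of compound exposure.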 It counts as functional, cell-based.
A short description of assay [21]: P. falciparum Dd2 growth inhibitors, dose response, SYBR Green, cherry-picked samples (AID 1159567). Format: functional, cell-based.
Assay [22] in a line: P. falciparum Dd2 growth inhibitors, dose response, SYBR Green, dry powder samples (AID 1159566).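 Also: potency for growth inhibition with lower SYBR green DNA signal.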 It counts as functional, cell-based.
A short description of assay [23]: Plasmodium falciparum Dd2 Sybr green parasite growth Measured in Cell-Based and Microorganism Combination System Using Plate Reader - 2153-01_Inhibitor_Dose_DryPowder_Activity_Set3. It counts as functional.
Assay [24] can be described thus: P. falciparum ATP4 D1247Y mutant growth inhibitors, dose response, NITD609-resistant line, SYBR Green, dry powder (AID 1159571).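 Also: parasites synchronized at ring stage by sorbitol before testing.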 It counts as functional, cell-based.
The nature of assay [25]: inhibitors of Vif binding to APOBEC3G peptide, primary screen, biochemical, TR-FRET, GST-Vif 1-94, biotin-A3G peptide, dose response retest (AID 1117319).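 Also: TR-FRET signal of purified GST-Vif binding a biotinylated A3G peptide; inhibitors lower the FRET signal by blocking Vif and A3G binding.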 It counts as functional.
Assay [26] is described as follows: HepG2 cell cytotoxicity, dose response, cytotoxicity control, plate reader, dry powder, set 6 (AID 743311). Format: functional, cell-based.
For assay [27], the target named is G-protein coupled receptor 183 (Homo sapiens, UniProt P32249). Briefly: SAR confirmation of small molecule antagonists of the EBI2 receptor via a luminescent beta-arrestin assa. Format: functional.

A word on the IC50: it is the concentration that inhibits the measured activity by half. Usually EC50 stands for the concentration needed to bring the measured effect to its halfway point. By AC50 is commonly meant the concentration giving half of the maximal activity seen.

Sequence of 1-phosphatidylinositol 4,5-bisphosphate phosphodiesterase gamma-1 (P19174 whole entry): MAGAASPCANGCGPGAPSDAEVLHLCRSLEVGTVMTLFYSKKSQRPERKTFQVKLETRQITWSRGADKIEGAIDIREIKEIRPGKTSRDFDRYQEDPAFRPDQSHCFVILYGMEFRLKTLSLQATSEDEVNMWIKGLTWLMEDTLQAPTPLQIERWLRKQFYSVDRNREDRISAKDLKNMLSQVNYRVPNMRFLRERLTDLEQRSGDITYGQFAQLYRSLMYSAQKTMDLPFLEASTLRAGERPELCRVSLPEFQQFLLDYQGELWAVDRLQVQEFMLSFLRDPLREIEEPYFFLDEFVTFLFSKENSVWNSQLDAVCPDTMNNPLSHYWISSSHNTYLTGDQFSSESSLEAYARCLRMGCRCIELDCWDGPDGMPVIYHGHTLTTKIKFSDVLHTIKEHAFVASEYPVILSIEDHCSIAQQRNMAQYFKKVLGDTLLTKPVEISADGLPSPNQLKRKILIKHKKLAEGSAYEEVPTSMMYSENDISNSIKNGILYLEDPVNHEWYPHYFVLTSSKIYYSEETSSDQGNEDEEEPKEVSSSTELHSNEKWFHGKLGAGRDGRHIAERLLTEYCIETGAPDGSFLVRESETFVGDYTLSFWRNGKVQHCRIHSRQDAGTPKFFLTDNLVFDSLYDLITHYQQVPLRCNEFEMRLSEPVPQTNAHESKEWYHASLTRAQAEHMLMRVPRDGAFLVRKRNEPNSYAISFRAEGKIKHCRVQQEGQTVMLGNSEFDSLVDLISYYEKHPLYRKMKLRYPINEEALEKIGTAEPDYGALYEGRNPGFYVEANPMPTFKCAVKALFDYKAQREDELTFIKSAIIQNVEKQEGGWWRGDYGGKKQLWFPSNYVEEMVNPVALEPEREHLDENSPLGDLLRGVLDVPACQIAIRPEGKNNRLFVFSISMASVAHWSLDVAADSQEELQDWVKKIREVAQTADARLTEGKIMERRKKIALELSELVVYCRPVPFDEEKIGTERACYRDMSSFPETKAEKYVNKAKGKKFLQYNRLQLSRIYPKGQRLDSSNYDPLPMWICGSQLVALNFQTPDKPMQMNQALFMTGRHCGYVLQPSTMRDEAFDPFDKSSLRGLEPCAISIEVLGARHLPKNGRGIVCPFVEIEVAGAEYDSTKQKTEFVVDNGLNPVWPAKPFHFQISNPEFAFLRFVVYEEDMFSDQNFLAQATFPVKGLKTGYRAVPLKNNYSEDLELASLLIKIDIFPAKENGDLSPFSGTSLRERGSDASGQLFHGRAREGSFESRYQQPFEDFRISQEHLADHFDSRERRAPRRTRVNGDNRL
Sequence of Muscarinic acetylcholine receptor M5 (Rattus norvegicus, UniProt P08911) (P08911 whole entry): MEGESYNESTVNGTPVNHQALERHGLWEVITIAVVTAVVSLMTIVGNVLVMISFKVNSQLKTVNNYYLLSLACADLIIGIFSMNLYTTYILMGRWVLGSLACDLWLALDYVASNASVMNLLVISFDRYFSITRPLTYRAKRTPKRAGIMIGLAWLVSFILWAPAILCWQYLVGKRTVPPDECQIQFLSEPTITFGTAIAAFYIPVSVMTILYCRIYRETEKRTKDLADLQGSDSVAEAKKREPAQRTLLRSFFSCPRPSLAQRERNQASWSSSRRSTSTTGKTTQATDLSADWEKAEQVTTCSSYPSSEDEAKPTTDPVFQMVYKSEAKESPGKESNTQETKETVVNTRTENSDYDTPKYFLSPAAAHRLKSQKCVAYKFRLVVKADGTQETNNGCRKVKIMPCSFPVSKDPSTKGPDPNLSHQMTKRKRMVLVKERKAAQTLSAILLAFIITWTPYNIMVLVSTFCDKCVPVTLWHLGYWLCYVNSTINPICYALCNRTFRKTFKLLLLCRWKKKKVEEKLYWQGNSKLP
Sequence of 1-phosphatidylinositol 4,5-bisphosphate phosphodiesterase beta-3 (Q01970 whole entry): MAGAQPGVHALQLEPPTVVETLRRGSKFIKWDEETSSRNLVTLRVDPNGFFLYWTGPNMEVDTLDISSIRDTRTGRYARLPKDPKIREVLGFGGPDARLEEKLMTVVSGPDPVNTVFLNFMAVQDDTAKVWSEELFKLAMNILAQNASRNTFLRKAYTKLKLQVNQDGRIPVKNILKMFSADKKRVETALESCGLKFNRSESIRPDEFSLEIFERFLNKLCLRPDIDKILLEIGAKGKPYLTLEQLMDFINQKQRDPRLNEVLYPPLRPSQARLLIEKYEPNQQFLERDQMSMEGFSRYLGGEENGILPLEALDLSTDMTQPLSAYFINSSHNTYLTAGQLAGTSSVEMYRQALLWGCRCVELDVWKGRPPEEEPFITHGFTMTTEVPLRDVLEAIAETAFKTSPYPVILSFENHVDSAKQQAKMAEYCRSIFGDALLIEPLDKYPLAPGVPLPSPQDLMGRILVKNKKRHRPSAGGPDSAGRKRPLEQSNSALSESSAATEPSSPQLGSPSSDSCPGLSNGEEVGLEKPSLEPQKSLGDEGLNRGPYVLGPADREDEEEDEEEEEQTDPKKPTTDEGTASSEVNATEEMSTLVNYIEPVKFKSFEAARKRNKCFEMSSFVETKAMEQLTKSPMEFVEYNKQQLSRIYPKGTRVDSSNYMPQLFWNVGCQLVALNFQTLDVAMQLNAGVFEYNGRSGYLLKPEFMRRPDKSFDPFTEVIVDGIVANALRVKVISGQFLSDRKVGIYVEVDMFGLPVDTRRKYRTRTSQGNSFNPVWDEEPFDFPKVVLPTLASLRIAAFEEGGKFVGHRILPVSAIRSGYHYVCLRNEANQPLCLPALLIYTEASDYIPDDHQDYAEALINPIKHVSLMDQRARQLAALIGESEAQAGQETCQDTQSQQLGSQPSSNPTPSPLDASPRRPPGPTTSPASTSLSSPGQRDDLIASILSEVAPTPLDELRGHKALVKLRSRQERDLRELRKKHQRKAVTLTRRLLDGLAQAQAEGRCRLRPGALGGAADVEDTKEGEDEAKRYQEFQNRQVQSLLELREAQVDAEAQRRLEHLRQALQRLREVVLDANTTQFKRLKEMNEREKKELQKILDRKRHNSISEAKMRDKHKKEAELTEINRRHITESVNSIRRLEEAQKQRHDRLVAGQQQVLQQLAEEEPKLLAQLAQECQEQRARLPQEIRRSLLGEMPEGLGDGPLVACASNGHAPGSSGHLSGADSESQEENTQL
Sequence of Muscarinic acetylcholine receptor M5 (Homo sapiens, UniProt P08912) (P08912 whole entry): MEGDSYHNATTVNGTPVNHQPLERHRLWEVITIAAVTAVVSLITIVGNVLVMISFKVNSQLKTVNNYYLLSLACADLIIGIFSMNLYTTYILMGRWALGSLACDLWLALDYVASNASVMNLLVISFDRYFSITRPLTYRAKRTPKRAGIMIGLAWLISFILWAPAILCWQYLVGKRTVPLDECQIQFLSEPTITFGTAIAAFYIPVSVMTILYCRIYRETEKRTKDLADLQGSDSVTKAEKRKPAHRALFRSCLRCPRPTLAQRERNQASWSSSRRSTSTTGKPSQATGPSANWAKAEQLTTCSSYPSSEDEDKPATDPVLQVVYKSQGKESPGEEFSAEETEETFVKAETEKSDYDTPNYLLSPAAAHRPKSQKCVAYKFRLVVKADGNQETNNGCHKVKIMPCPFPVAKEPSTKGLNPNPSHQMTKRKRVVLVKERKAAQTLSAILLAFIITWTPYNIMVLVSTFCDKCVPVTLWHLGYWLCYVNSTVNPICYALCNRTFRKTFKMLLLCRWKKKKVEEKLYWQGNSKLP
Sequence of G-protein coupled receptor 183 (P32249 whole entry): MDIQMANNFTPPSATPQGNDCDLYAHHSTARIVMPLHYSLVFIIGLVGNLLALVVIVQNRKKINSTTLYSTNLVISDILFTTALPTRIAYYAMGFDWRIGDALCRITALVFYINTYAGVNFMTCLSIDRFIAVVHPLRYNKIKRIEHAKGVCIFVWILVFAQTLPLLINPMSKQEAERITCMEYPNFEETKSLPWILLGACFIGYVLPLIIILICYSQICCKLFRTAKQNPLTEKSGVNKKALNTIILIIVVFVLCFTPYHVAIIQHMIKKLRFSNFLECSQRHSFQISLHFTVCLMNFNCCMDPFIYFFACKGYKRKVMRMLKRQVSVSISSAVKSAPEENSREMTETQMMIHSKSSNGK

For the molecule `C[S+](CC[C@H](N)C(=O)O)C[C@H]1O[C@@H](n2cnc3c(N)ncnc32)[C@H](O)[C@H]1O` (some centres undefined), the IC50 in assay [1], in assay [2], in [3], in [4], in assay [5] and in assay [6] was > 20 µM (inactive) throughout. Further, in [7], the IC50 is > 20 µM (inactive).
On to `N#Cc1ccc(/C=C\c2[nH]ccc3c4ccccc4nc2-3)cc1`, for which the EC50 in assay [8] and in assay [9] was > 91.2 µM (inactive) throughout. Moreover, the AC50 was 40.7 µM (active) in assay [10], 24.2 µM (active) in “cells [11]” and > 52 µM (inactive) in “cells [12]”.
`CC(=O)c1cccc(NCc2cc(C(=O)N(C)C(C)c3ccccn3)no2)c1` (centres undefined): the half-inhibitory concentration (IC50) in assay [13] was 7.11 µM (active); in assay [14] it was 6.77 µM (active).
With `CC(C)(C)c1ccc(OCCn2cnc3ccccc32)cc1`, the AC50 in assay [15] was 23.9 µM (active); in [16], 15.9 µM (active); in the assay “cells [17]”, 20.9 µM (active).
On to `CN(C(=O)c1ccccc1)C1c2c(ccc3ccccc23)OCC1CO` (centres undefined), for which the IC50 in assay [18] and in assay [19] was > 122 µM (inactive) each time.
For `O=C(/C(=C(\[S-])Nc1ccc(SC(F)F)cc1)[n+]1ccccc1)c1cc(Cl)ccc1Cl`, the EC50 on Transthyretin is > 167 µM (inactive).
On to `CO[C@@H]1CN(C)C(=O)c2ccc(NC(=O)Nc3ccccc3F)cc2OC[C@@H](C)N(CCC(F)(F)F)C[C@H]1C`, for which the half-maximal activity concentration (AC50) in [20] is 6.04 µM (active); in [21], 1.57 µM (active); in assay [22], 510 nM (active); in assay [23], 567 nM (active); in [24] it was 1.92 µM (active).
Turning to `Cc1cc(NC(=O)Cn2cnc3c(nnn3-c3cccc(F)c3)c2=O)no1`, the IC50 in assay [25] was > 100 µM (active).
For `c1ccc(COc2ccc(OCCn3cnc4ccccc43)cc2)cc1`, the AC50 (in assay [26]; in “cells [17]”) was > 52 µM (inactive) each time.
For the molecule `COc1cc(CN2CCN(C(=O)/C=C/c3ccc(Br)cc3)CC2)cc(OC)c1`, the IC50 in assay [27] is 3.64 nM (active).
